Measured values: PubChem BioAssay AID977613 (Broad Institute, 2014)
Calls of active or inactive are those of the source. No rule for the calls is given here.

system: Broad 7084-01 inhibitor HTS, set 2; experiment: single-concentration hits, screen 7084 set 2 (AID 977613);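 also: host cells are infected with parasite promastigotes that become internalized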

Row | Structure (SMILES) | active concentration
1 | Cc1ccc(CN2CC(=O)N3[C@H](CO)[C@@H](c4ccc(-c5ccccc5F)cc4)[C@H]3C2)cc1 | > 10 µM (inactive)
2 | O=C(O)[C@H]1[C@H](CO)[C@H]2Cn3c(ccc(-c4ccccc4F)c3=O)[C@@H]1N2C(=O)c1cccnc1 | > 10 µM (inactive)
3 | O=S(=O)(c1ccc(F)cc1)N1CCCCN2[C@H](C1)[C@@H](c1ccc(-c3cncnc3)cc1)[C@@H]2CO | > 10 µM (inactive)
4 | CN1C(=O)c2cc(NC(=O)c3cnccn3)ccc2OC[C@H]2O[C@H](CC(=O)NCC3CCCCC3)CC[C@@H]21 | > 10 µM (inactive)
5 | O=C(c1cnccn1)N1CC(=O)N2[C@@H](CO)[C@H](c3ccc(C#CC4CC4)cc3)[C@@H]2C1 | > 10 µM (inactive)
6 | O=C(Nc1ccc(F)cc1)N1CC(=O)N2[C@H](CO)[C@@H](c3ccc(C#Cc4cccnc4)cc3)[C@H]2C1 | > 10 µM (inactive)
7 | COc1ccc(-c2ccccc2[C@H]2[C@@H](CO)N(C(=O)NC(C)C)[C@H]2C#N)cc1 | > 10 µM (inactive)
8 | O=C(C[C@H]1CC[C@@H]2[C@H](COC[C@@H](O)CN2C(=O)c2ccncc2)O1)NCc1ccc(-c2ccccc2)cc1 | > 10 µM (inactive)
9 | O=C(CN1CCOCC1)N1CC2(C1)[C@@H](c1ccccc1)[C@@H](CO)N2Cc1ccc(F)cc1 | > 10 µM (inactive)
10 | COc1cccc(NC(=O)N2C[C@H](O)COC[C@H]3O[C@H](CC(=O)NC4CCC4)CC[C@@H]32)c1 | > 10 µM (inactive)
11 | N#C[C@@H]1[C@@H](c2ccccc2-c2ccccc2F)[C@@H](CO)N1C(=O)C1CCC1 | > 10 µM (inactive)
12 | COc1ccc2c3c(n(C)c2c1)[C@H](CO)N(C)CC31CCN(S(=O)(=O)c2cccc(F)c2)CC1 | > 10 µM (inactive)
13 | Cn1cnc(CCNC(=O)C[C@@H]2CC[C@@H]3[C@H](COC[C@@H](O)CN3C(=O)C3CC3)O2)c1 | > 10 µM (inactive)
14 | CN1[C@H](CO)[C@H]2c3ccccc3N(C(=O)Nc3ccccc3F)C[C@H]21 | > 10 µM (inactive)
15 | COc1ccccc1NC(=O)N1CC(=O)N2[C@H](CO)[C@@H](c3ccc(-c4cccc(C)c4)cc3)[C@@H]2C1 | > 10 µM (inactive)
16 | C[C@H](NC(=O)[C@H]1[C@H](CO)[C@H]2Cn3c(ccc(-c4ccncc4)c3=O)[C@H]2N1C)c1ccccc1 | > 10 µM (inactive)
17 | O=C(C[C@@H]1CC[C@H]2[C@@H](COC[C@@H](O)CN2C(=O)c2ccc(F)cc2)O1)NCc1cccc(F)c1 | > 10 µM (inactive)
18 | Cc1ccccc1-c1ccccc1[C@H]1[C@@H](C#N)N(C(=O)c2cccc(F)c2)[C@H]1CO | > 10 µM (inactive)
19 | O=C(C[C@@H]1CC[C@@H]2[C@H](COC[C@@H](O)CN2Cc2ccc3c(c2)OCO3)O1)Nc1ccccc1 | > 10 µM (inactive)
20 | O=C([C@H]1[C@H](CO)[C@H]2Cn3c(cccc3=O)[C@H]2N1Cc1ccccc1Cl)N1CCCCC1 | > 10 µM (inactive)
21 | CCCNC(=O)N1[C@@H]2CN(C(=O)c3cccnc3)c3ccccc3[C@@H]2[C@@H]1CO | > 10 µM (inactive)
22 | O=C1CNC[C@H]2[C@H](c3ccc(C4=CCCC4)cc3)[C@@H](CO)N12 | > 10 µM (inactive)
23 | CS(=O)(=O)N1[C@H](CO)[C@@H](c2ccccc2)C12CN(Cc1ccccn1)C2 | > 10 µM (inactive)
24 | CC(=O)N1CC[C@@H]2[C@H]1c1cc(-c3ccc(F)cc3)ccc1N[C@@H]2CO | > 10 µM (inactive)
25 | COc1ccc2c3c([nH]c2c1)[C@@H](CO)N(Cc1ccccc1OC)CC31CN(C(C)=O)C1 | > 10 µM (inactive)
26 | CCCNC(=O)N1CC2(CN(C(=O)Cc3cccnc3)C2)c2c([nH]c3cc(OC)ccc23)[C@H]1CO | > 10 µM (inactive)
27 | CN(C)CC(=O)N1CC2(C1)[C@@H](c1ccccc1)[C@@H](CO)N2C(=O)C1CC1 | > 10 µM (inactive)
28 | Cc1ccccc1-c1ccc([C@H]2[C@H]3CN(S(=O)(=O)Cc4ccccc4)CCCCN3[C@H]2CO)cc1 | > 10 µM (inactive)
